Experimental data: patent publication US20130039956A1, “USE OF NITROCARBOXYLIC ACIDS FOR THE TREATMENT, DIAGNOSIS AND PROPHYLAXIS OF AGGRESSIVE HEALING PATTERNS” (priority 2010, published 2013)

Legend:
fibroblasts [1] = assay: Mechanical alteration of fibroblasts (cyclic stretching of coated polypropylene meshes); assay type: cell-based; settings: cyclic stretching, day 7, day 21, 8 weeks, compared with native FA
Excerpt: In order to simulate the effects of chronic shear forces on a healing wound, an in vitro model was established. A flat balloon was placed on the bottom of a Petri dish. A silicone sheet was placed above and sealed with the side of the Petri dish. Then a 3 mm agar layer was casted on top of the sheet. Commercially available polypropylene meshes for hernia repair (microporous mesh, a low-weight and macroporous mesh with absorbable polyglactin filaments, and a heavy-weight and microporous mesh) were placed on the agar plates and fixed at 4 points at the side of the Petri dish. This setting enabled stretching of the meshes by filling the balloons with air, which was performed at 10-second intervals using an automated pumping device. The model can be used to evaluate the effect of three-dimensional (3D) shear forces on cell growth during cell cultivation. Preincubated suspensions of fibroblasts (1.5×10(5) cells) in a culture medium (10% FCS) were added to the culture dishes and allowed to grow for 48 hours. Cyclic stretching was started at day 3. Histological analysis was performed from the central portions of the meshes at day 7, at day 21, and after 8 weeks. The scaffolds were detached from the culture plate and carefully rinsed. Then, they were cut into pieces, casted, and further processed for standard histology and immunohistology. Care was taken to achieve a cutting plane that was vertical to the surface plane of the meshes. Histological analysis evaluated the cellularity, the content of extra cellular matrix (ECM), and the magnitude of protein synthesis. Meshes were dip-coated with native and nitro fatty acids or left blank in the same manner as in example 1. The uncoated meshes served as controls.

[2] = tested on: human umbellical endothelial cells (HUVEC); assay: Adhesion, propagation and growth of endothelial cells on coated polystyrene films; assay type: cell-based; settings: days 3, 7, 14, compared with native FA
Protocol: Polystyrene scaffolds were prepared and pretreated in the same manner as performed in example 1 by using the same nitrocarboxylic acids as listed in table 1. The film samples were placed in a culture dish containing a gel matrix, in which human umbellical endothelial cells (HUVEC) had been allowed to grow to confluence. The culture medium consisted of 5% FCS, which was replaced every 5 days. Cultivation was performed according to standard conditions. Films were evaluated at days 3, 7, and 14 after careful extraction from the culture dishes, rinsing with saline solution, and staining with methylene blue. Using a reflected light microscope, the films were immediately examined to evaluate the following: Propagation of cells to the film center, cell confluidity, multilayer formation, and cell shape.

fibroblasts [3] = assay: Biofouling and cell adherence at prosthetic materials (dip-coated polymer films); assay type: cell-based; settings: compared with native FA (control)
Protocol: Polymer scaffolds (polyurethane, polyvinylchloride, polylactate) which are used as implant materials were investigated. Solid and porous (pore sizes ranging from 50 to 150 micrometer) films of pure polymer scaffolds were cut into pieces (5×5 mm). After cleaning with NaOH and ethanol, they were dip-coated with native and nitrocarboxylic acids. Dip-coated pieces were suspended in a tube filled with argon and heated at 60° C. for 24 hours in the dark. Film pieces with and without coating were placed in a borosilicate glass tube that allowed fixation of two margins of the film pieces at the wall of the glass tube, thus, enabling a upright standing position in the center of the tube. Tubes were filled with various solutions for 12 hours. Solutions consisted of the following: 0.9% saline; 2% bovine albumin; 2% bovine albumin with addition of either fibronectin or laminin; and bovine serum. At the end of the exposure time, tubes were gently washed twice with 0.9% saline solution. One set of films was analyzed for protein absorption using a specific antibody staining method. An identically prepared set of films was further processed for cell cultures. A suspension containing preincubated fibroblasts in 1% FCS was added to the film-containing tubes. The tubes were tilted and adjusted in such a position so that the films were in a vertical orientation within the suspension. […] Tubes had two openings at the upper half (of the tilt tubes) that allowed free exchange of the atmosphere above the solution with the surrounding atmosphere. Sets were incubated at standard conditions for 24, 48, and 96 hours, respectively. Thereafter, films were carefully removed and rinsed with 0.9% saline solution. The cellularity and the shape of the cells on both sides of the films were evaluated after staining (Gimsa) using a reflected light microscope.

adult rats = assay: Fibrogenesis after traumatic and thermal tissue damage in dermal wound healing in vivo; design: species or system rat; settings: 100 micromol ethanolic solution on wound margins, 8 weeks, compared with native FA
Excerpt: In order to determine the effects of nitrated fatty acids on fibrogenesis in response to traumatic and thermal tissue damage, an in vivo rat model was investigated. Paravertebral scalpel incision (two on each side) of approximately 1 cm in length and a depth of 1 mm were made in 12 anesthetized adult rats (150-200 g) of either sex after disinfection. Bleeding was stopped by manual compression. The entire length of the wound margins of one incision at each side were additionally cauterized using a 3-mm ball electrode connected to a DRE ASG-120 electrosurgical generator. Wound margins of one side were then covered with a sterile ethanolic 0.9% saline solution, or with a sterile ethanolic solution of the fatty acids (100 micromol), or with a sterile ethanolic solution of the nitrated fatty acids (100 micromol) using a sterile brush. A 1×10 mm cotton string that was bathed in the ethanolic solution containing 0.9% saline, native fatty acid or nitrated fatty acids was placed upon the incision site that had been closed by manual adaptation. The adaptation result and the cotton strings were fixed by an adhesive film. The animals were housed and fed according to institutional standards. The wound films were carefully removed after 2 weeks. Animals were euthanized after 8 weeks. The skin wounds were harvested, including the epidermis, dermis, and subcutaneous loose tissue with the surrounding normal tissue. The removed tissues were fixed in formalin and then embedded in paraffin. The cutting plane was vertical to the longitudinal axis of the former incisions. Slices (4-6 μm) were stained with H&E and Masson trichrome staining to evaluate the amount and density of collagen.

human dermal fibroblasts = assay: Extra cellular matrix production (collagen-1) in response to TGF-β2 in dermal fibroblasts; assay type: cell-based; settings: 10 and 50 μmol, TGF-β2 25 ng/ml, 48 hours; compared with native FA
Protocol: In order to determine whether PPRA gamma stimulation due to nitrated fatty acids plays a role in the inventive inhibition of an aggressive healing pattern to an irritating stimulus, human dermal fibroblasts were investigated. A dominant-negative PPAR gamma mutant (L466A) cell clone was generated by polymerase chain reaction-based site-directed mutagenesis. Presence of PPAR gamma or absence was investigated using a PPAR gamma antibody reaction which was determined using an enhanced chemiluminescence detection system. Furthermore, one cell series was incubated with a selective irreversible PPAR gamma ligand (GW9662, 1 μmol), which effectively blocks PPAR gamma receptors.
Sequential cultivation of human dermal fibroblasts was performed in EMEM containing 5 mM glucose supplemented with 10% FCS under standard cultivation conditions. Cells were allowed to grow to confluence in a 96-well plate. Wild-type fibroblasts and PPAR gamma deficient fibroblasts were investigated by a set-up of 2×10 sample sets comprising: (1) blank control; (2) stimulation control; (3) preincubation with the PPAR gamma antagonist GW9662 (Cayman Chemical); (4) preincubation with the PPAR agonist troglitazone (25 μmol). In 2×4 sample sets, native fatty acids were added to the medium to achieve a final concentration of 10 and 50 μmol, respectively; in another 2×4 sets the nitrated fatty acids were added to the medium in the same concentration, while 2×2 sets served as controls. In 10 of the sets, TGF-β2 was added to the culture medium at a concentration of 25 ng/ml. Cultivation was continued for 48 hours and then processed in order to analyze collagen-1 as measured by enhanced chemiluminescence detection of immuncomplexes.
Note: key: 0: not superior to native FA (control); +: Superior to native FA; ++: superior to both; +++: outstanding effect.

SMILES	Relative effect on fibroblasts under mechanical alteration (fibroblasts [1])	Relative differences: effect on adhesion, propagation and growth of endothelial cells [2]	Relative differences: effect on biofouling and cell adherence (fibroblasts [3])	Relative effect on fibrogenesis (scar formation) in dermal wound healing (adult rats)	Relative effect on collagen-1 production in response to TGF-β2 (human dermal fibroblasts)
CCCCCC/C=C(/CCCCCCCC(=O)O)[N+](=O)[O-] [compound 13]	+	++	+	+	+
CCCCCC=CCC=C(CC=CCC=CCCCC(=O)O)[N+](=O)[O-] [compound 14, 11-nitro-5,8,11,14-eicosatrienoic acid]	0	+	+	+	+
CCCCCC/C=C(\CCCCCCCC(=O)O)[N+](=O)[O-] [compound 16, 9-nitro-9-trans-hexadecenoic acid]	++	+	++	+	0
CCCCCCCC/C=C(/CCCCCCCCCCCC(=O)O)[N+](=O)[O-] [compound 17, 13-nitro-cis-13-docosenoic acid]	+	0	+	+	+
CCCCC/C=C(/C/C=C\C/C=C(/C/C=C\CCCC(=O)O)[N+](=O)[O-])[N+](=O)[O-] [compound 18, 8,14-nitro-cis-5,8,11,14-eicosatetraenoic acid]	+	+	+	+	+
CCC=CCC=C(CC=CCC=CCC=CCC=C(CCC(=O)O)[N+](=O)[O-])[N+](=O)[O-] [compound 19, 4,16-nitro-docosahexaenoic acid]	++	+	+	+	+
CCCCCC=CCC=C(CC=CC/C=C\CCCC(=O)O)[N+](=O)[O-] [compound 22, 11-nitro-cis-5,8,11,14-eicosatetraenoic acid]	++	++	+	++	++
